Source: US20150141439A1, “PHARMACEUTICAL COMPOSITION FOR THE PREVENTION OR TREATMENT OF BRAIN TUMOR OR TEMODAL RESISTANT GLIOBLASTOMA MULTIFORM COMPRISING AZATHIOPRINE AS AN ACTIVE INGREDIENT” (KOREA RESEARCH INSTITUTE OF CHEMICAL TECHNOLOGY, priority 2012, published 2015)

Legend:
[1] = test system: cells of lung cancer with brain metastasis transplanted in the mouse brain; test: Animal test with cells of lung cancer with brain metastasis, survival; assay type: in vivo; conditions: azathioprine 2 mg/kg oral every day after day 11, Temodal (TMZ) 65 mg/kg oral 5 days from day 17
Description: The cells of lung cancer with brain metastasis were obtained from Samsung Hospital (Seoul) and cultured. The cultured cells (2×10^5/5 μl) were transplanted in the mouse brain. 17 days later, Temodal administration (65 mg/kg, oral administration) began, which continued for 5 days. The compound of formula 1 of the present invention (azathioprine) was co-treated to the mouse by oral-administration at the dose of 2 mg/kg every day after 11 days from the transplantation of the cells of lung cancer with brain metastasis in the mouse brain. Then, the average survival period was investigated.

[2] = test system: classical subtype (626T) glioblastoma multiform cells; conditions: concentrations starting from 100 μM, culture for 7 days
Description: (§1) Thymidine incorporation assay was performed to investigate the cell growth inhibition effect of the compound of the present invention. Three subtypes of glioblastoma multiform cells [proneural subtype (559T), mesenchymal subtype (592T), classical subtype (626T)] and normal human astrocytes (NHA) were N cultured in a 96-well plate at the density of 1×10^4 cells/well, to which 2 μCi/well of 3H-thymidine was added. Azathioprine was added thereto at different concentrations starting from 100 μM, followed by culture for 7 days. 200 μl/well of scintillation fluid (biofluor) was added thereto and count per minute (cpm) was calculated.

[3] = test system: mesenchymal subtype (592T) glioblastoma multiform cells; conditions: concentrations starting from 100 μM, culture for 7 days
Description: as §1

[4] = test system: proneural subtype (559T) glioblastoma multiform cells; conditions: concentrations starting from 100 μM, culture for 7 days
Description: as §1

HaCat Human keratinocyte = test: Secondary cytotoxicity test, HaCat; assay type: cell-based
Description: (§2) Particularly, the cell growth inhibition effect was measured by WST-1 cell proliferation assay [http://www.roche-applied-science.com/PROD_INF/MANUALS/CELL_MAN/apoptosis—087—088.pdf]. The compound of formula 1 was loaded in a 384-well cell culture plate. Three types of glioblastoma multiform cell lines [proneural subtype (559T), mesenchymal subtype (592T), and classical subtype (626T)], normal human astrocytes (NHA), a lung cancer cell line (A549), and a glioblastoma multiform cell line (U87MG) were distributed in the plate at the density of 4.5×10^3 cells/well, and the medium was filled up to make 50 μl per well. At this time, the concentration of the solvent DMSO for the compound of formula 1 was no more than 0.2%. After culturing the cells for 72 hours, 5 mg/ml of WST-1 reagent was added by 5 μl per well, followed by reaction for 3˜4 hours. Then OD450 was measured to investigate the effect of the compound of formula 1 on cell proliferation.
(§3) To investigate the cell growth inhibition effect of the compound of formula 1 of the present invention (azathioprine) in many different cell lines, secondary cytotoxicity test was performed with the cell lines listed in Table 5 by the same manner as described in Example 1.

[5] = test system: normal human astrocytes (NHA); test: WST-1 cell proliferation assay, NHA; assay type: cell-based
Description: as §2

[6] = test system: GBM #3 glioblastoma multiform patient originated cells; test: Neurosphere formation inhibition, GBM #3; assay type: cell-based, human; set-up: key: S: strong effect; I: intermediate effect; R: rare effect; conditions: GBM #3, type A (proneural), Azathioprine 1 μM, duration 21 day
Description: Particularly, to investigate neurosphere formation, glioblastoma multiform cells were cultured for a certain time and the cells were distributed again in culture vessels, followed by additional culture. Then, the number of newly generated neurospheres was measured. First, the glioblastoma multiform patient originated cells were sub-cultured, which were distributed in a 96-well plate (20, 50, and 200 cells in 50 μl of culture medium/well). […] Then, the compound of formula 1 (azathioprine) and the compound of Comparative Example 1 (Temodal) were added to 50 μl of cell culture medium with the same concentrations as the above once a week, which were then cultured for 7˜23 days. When neurosphere was formed at least 50 μm in the control group not treated with the compound, the number of neurospheres in each well was counted to compare the neurosphere formation before and after the treatment of the compound of formula 1 (azathioprine) and the compound of Comparative Example 1 (Temodal).
The glioblastoma multiform cells used in this experiment were classified into 4 types, which are type A, type B, type C, and type D, according to the gene expression pattern. Methylation of MGMT (O6-me-G methyltransferase), the DNA repair protein, was confirmed in each cell line. […]

[7] = test system: MCF-7 Human breast adenocarcinoma; test: Secondary cytotoxicity test, MCF-7; assay type: cell-based; conditions: MCF7
Description: as §2, §3

[8] = test system: Hela Human adenocarcinoma; test: Secondary cytotoxicity test, Hela; assay type: cell-based
Description: as §2, §3

[9] = test system: HCT-116 Human colorectal carcinoma; test: Secondary cytotoxicity test, HCT-116; assay type: cell-based
Description: as §2, §3

Q: With Cn1cnc([N+](=O)[O-])c1Sc1ncnc2nc[nH]c12 [Azathioprine, 6-(1-methyl-4-nitro-1H-imidazol-5-ylthio)-7H-purine] as the compound, how does the “Average Survival Period” value [1] read?
A: 63 days

Q: And the “Survival Period Extension Rate (%)” value [1]?
A: 59-70%

Q: And the “cell growth inhibition effect (3H-thymidine incorporation)” value (“cell growth inhibition effect” for short) [2]?
A: significant cell growth inhibition effect

Q: What about the “cell growth inhibition effect” value [3] of the same compound?
A: significant cell growth inhibition effect

Q: What about the “cell growth inhibition effect” value [4] of the same compound?
A: significant cell growth inhibition effect

Q: And the IC50 (HaCat Human keratinocyte)?
A: 6.3 µM

Q: And the inhibition at 0.032 µM ([5]; Homo sapiens, Astrocyte, 0.032 μM, 72 hours, read-out: Cell Growth Inhibition (% Inhibition))?
A: 1.9%

Q: And the inhibition at 0.1 µM ([5]; Homo sapiens, Astrocyte, 0.1 μM, 72 hours, read-out: Cell Growth Inhibition (% Inhibition))?
A: 5.9%

Q: What about the inhibition at 0.32 µM ([5]; Homo sapiens, Astrocyte, 0.32 μM, 72 hours, read-out: Cell Growth Inhibition (% Inhibition)) of the same compound?
A: 11%

Q: And the inhibition at 1 µM ([5]; Homo sapiens, Astrocyte, 1.0 μM, 72 hours, read-out: Cell Growth Inhibition (% Inhibition))?
A: 8.3%

Q: And the inhibition at 3.2 µM ([5]; Homo sapiens, Astrocyte, 3.2 μM, 72 hours, read-out: Cell Growth Inhibition (% Inhibition))?
A: 10.5%

Q: What about the inhibition at 10 µM ([5]; Homo sapiens, Astrocyte, 10 μM, 72 hours, read-out: Cell Growth Inhibition (% Inhibition)) of the same compound?
A: -2.4%

Q: What about the GI50 ([5]; Homo sapiens, Astrocyte, 72 hours) of the same compound?
A: > 10 µM

Q: What about the “toxicity in normal astrocytes” value ([5]; WST-1, up to 10 μM) of the same compound?
A: did not cause toxicity

Q: And the “inhibition of neurosphere formation” value [6]?
A: S

Q: And the IC50 [7]?
A: 2.6 µM

Q: And the IC50 [8]?
A: 2.9 µM

Q: And the IC50 [9]?
A: 5.5 µM
